ChEMBL document CHEMBL1629476, “Synthesis and biological evaluation of aminoketones” (2010)
In brackets after ≈: the same amount, converted by molar mass.

Experiments:
Assay type in all cases: functional
Staphylococcus aureus = assay: Antibacterial activity against Staphylococcus aureus after 16 hrs by serial dilution method
Bacillus subtilis = assay: Antibacterial activity against Bacillus subtilis after 16 hrs by serial dilution method
Escherichia coli = assay: Antibacterial activity against Escherichia coli after 16 hrs by serial dilution method
Pseudomonas aeruginosa = assay: Antibacterial activity against Pseudomonas aeruginosa after 16 hrs by serial dilution method

SMILES | MIC (Staphylococcus aureus) | MIC (Bacillus subtilis) | MIC (Escherichia coli) | MIC (Pseudomonas aeruginosa)
O=C1CCCCC1C(Nc1ccc(F)cc1F)c1ccc(F)cc1 (stereo not drawn) | 1.61 µg/mL (≈ 4.84 µM) | 1.61 µg/mL (≈ 4.84 µM) | 1.61 µg/mL (≈ 4.84 µM) | 1.61 µg/mL (≈ 4.84 µM)
COc1ccc(F)c(C(Nc2ccc(F)cc2F)C2CCCCC2=O)c1 (stereo not drawn) | 3.12 µg/mL (≈ 8.6 µM) | 1.61 µg/mL (≈ 4.44 µM) | 1.61 µg/mL (≈ 4.44 µM) | 1.61 µg/mL (≈ 4.44 µM)
CO/N=C(\C(=O)N[C@@H]1C(=O)N2C(C(=O)O)=C(CSc3nc(=O)c(O)nn3C)CS[C@H]12)c1csc(N)n1 [CEFTRIAXONE] | 3.12 µg/mL (≈ 5.63 µM) | 1.61 µg/mL (≈ 2.91 µM) | 1.61 µg/mL (≈ 2.91 µM) | 1.61 µg/mL (≈ 2.91 µM)
N#Cc1ccc(NC(c2ccccc2Cl)C2CCCCC2=O)cc1 (stereo not drawn) | 3.12 µg/mL (≈ 9.22 µM) | 1.61 µg/mL (≈ 4.76 µM) | 1.61 µg/mL (≈ 4.76 µM) | 1.61 µg/mL (≈ 4.76 µM)
CCc1ccc(C(Nc2cc(F)c(F)c(F)c2)C2CCCCC2=O)cc1 (stereo not drawn) | 12.5 µg/mL (≈ 34.6 µM) | 12.5 µg/mL (≈ 34.6 µM) | 12.5 µg/mL (≈ 34.6 µM) | 12.5 µg/mL (≈ 34.6 µM)

Continued, values first:

MIC (Staphylococcus aureus) | MIC (Bacillus subtilis) | MIC (Escherichia coli) | MIC (Pseudomonas aeruginosa) | SMILES
6.25 µg/mL (≈ 18.6 µM) | 6.25 µg/mL (≈ 18.6 µM) | 12.5 µg/mL (≈ 37.3 µM) | 6.25 µg/mL (≈ 18.6 µM) | CC(C)(C)c1ccc(NC(c2ccccc2)C2CCCCC2=O)cc1 (stereo not drawn)
1.61 µg/mL (≈ 4.75 µM) | 1.61 µg/mL (≈ 4.75 µM) | 1.61 µg/mL (≈ 4.75 µM) | 1.61 µg/mL (≈ 4.75 µM) | COc1cccc(NC(c2cccc(C)c2O)C2CCCCC2=O)c1 (stereo not drawn)
3.12 µg/mL (≈ 9.37 µM) | 1.61 µg/mL (≈ 4.84 µM) | 1.61 µg/mL (≈ 4.84 µM) | 1.61 µg/mL (≈ 4.84 µM) | O=C1CCCCC1C(Nc1ccc(F)c(F)c1)c1ccccc1F (stereo not drawn)
3.12 µg/mL (≈ 9.37 µM) | 1.61 µg/mL (≈ 4.84 µM) | 1.61 µg/mL (≈ 4.84 µM) | 1.61 µg/mL (≈ 4.84 µM) | Cc1cc2cc(NC(c3ccncc3)C3CCCCC3=O)ccc2[nH]1 (stereo not drawn)
6.25 µg/mL (≈ 17.7 µM) | 3.12 µg/mL (≈ 8.84 µM) | 3.12 µg/mL (≈ 8.84 µM) | 6.25 µg/mL (≈ 17.7 µM) | C=CCOc1ccccc1C(Nc1cccc(F)c1)C1CCCCC1=O (stereo not drawn)
6.25 µg/mL (≈ 17.1 µM) | 6.25 µg/mL (≈ 17.1 µM) | 6.25 µg/mL (≈ 17.1 µM) | 25 µg/mL (≈ 68.2 µM) | CCc1ccc(C(Nc2ccc(C)c([N+](=O)[O-])c2)C2CCCCC2=O)cc1 (stereo not drawn)
3.12 µg/mL (≈ 8.46 µM) | 3.12 µg/mL (≈ 8.46 µM) | 1.61 µg/mL (≈ 4.37 µM) | 1.61 µg/mL (≈ 4.37 µM) | O=C1CCCCC1C(Nc1cccc2ccccc12)c1cc2ccccc2o1 (stereo not drawn)
